What was measured:
[1] = target: T1, C-X-C chemokine receptor type 2 (Homo sapiens, UniProt P25025); assay type: cell membranes, Membrane; details: cho-k1; note: in other assays of this panel Not Active means under 50% inhibition at 10 µM
T1 sequence (P25025 whole entry): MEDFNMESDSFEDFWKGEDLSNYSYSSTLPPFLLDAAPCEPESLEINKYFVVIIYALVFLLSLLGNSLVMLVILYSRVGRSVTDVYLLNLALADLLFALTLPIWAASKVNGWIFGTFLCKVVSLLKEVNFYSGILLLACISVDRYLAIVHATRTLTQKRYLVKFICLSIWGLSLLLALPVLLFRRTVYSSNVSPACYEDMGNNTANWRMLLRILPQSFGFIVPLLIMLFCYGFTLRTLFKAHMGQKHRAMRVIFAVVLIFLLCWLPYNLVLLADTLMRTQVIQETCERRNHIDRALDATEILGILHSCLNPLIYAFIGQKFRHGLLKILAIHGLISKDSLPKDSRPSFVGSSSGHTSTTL

[2] = target: T2, Cholecystokinin receptor type A (Homo sapiens, UniProt P32238); assay type: cell membranes, Membrane; details: 1321-n1; note: in other assays of this panel Not Active means under 50% inhibition at 10 µM
T2 sequence (P32238 whole entry): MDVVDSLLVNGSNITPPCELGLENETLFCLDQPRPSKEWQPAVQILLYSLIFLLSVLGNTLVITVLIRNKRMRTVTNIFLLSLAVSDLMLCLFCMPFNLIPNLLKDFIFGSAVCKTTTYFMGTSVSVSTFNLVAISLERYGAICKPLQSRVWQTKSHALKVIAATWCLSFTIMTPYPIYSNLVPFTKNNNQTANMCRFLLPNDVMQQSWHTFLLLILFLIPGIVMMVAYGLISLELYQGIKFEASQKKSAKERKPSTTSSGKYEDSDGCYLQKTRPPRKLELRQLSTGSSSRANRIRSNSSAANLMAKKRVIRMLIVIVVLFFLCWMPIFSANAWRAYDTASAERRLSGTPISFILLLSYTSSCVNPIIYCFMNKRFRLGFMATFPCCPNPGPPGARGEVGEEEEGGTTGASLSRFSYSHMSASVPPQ

[3] = target: T3, Nitric oxide synthase, inducible (Mus musculus, UniProt P29477); set-up: species or system Escherichia coli;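 note: inhibition of iNOS enzyme activity measured with L-arginine as substrate; in other assays of this panel Not Active means under 50% inhibition at 10 µM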
T3 sequence (P29477 whole entry): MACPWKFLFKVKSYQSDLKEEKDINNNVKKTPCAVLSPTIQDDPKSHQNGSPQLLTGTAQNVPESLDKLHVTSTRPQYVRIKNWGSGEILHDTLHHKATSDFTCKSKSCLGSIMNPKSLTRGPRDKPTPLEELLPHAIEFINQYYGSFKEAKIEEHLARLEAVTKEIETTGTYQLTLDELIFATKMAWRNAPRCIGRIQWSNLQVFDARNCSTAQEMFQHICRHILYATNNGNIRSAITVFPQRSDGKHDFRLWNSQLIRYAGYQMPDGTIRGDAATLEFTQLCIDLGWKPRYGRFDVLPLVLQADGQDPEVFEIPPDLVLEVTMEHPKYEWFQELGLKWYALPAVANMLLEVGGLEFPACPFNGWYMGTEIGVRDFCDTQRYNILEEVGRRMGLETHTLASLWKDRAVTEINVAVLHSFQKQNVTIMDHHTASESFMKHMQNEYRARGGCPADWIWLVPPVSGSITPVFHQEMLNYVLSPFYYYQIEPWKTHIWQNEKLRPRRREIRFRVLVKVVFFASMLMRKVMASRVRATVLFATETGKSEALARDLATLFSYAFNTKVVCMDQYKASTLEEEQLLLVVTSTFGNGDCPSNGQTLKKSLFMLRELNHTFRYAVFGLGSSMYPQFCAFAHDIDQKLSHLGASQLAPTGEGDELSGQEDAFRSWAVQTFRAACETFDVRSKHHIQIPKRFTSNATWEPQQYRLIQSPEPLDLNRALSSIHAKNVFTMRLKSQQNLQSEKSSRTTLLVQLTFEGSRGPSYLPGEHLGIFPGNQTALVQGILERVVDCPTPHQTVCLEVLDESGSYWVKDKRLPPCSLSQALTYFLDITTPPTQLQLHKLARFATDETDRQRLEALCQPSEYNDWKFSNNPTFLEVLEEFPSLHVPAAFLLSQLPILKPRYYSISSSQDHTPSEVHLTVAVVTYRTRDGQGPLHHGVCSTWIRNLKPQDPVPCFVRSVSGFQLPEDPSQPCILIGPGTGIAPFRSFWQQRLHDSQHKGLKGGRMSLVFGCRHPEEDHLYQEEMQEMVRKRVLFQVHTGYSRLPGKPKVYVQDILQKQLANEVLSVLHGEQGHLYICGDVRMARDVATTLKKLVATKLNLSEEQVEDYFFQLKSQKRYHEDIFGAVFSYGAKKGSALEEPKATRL

[4] = target: Beta-1 adrenergic receptor (Homo sapiens, UniProt P08588); experiment: DRUGMATRIX: Adrenergic beta1 radioligand binding (ligand: [125I] Cyanopindolol); assay type: cell membranes, CHO-K1, Membrane; details: cho-k1; Not Active = under 50% inhibition at 10 µM
[5] = DRUGMATRIX: beta-Lactamase enzyme inhibition (substrate: Nitrocefin); set-up: species or system Bacillus cereus; details: Not Active = under 50% inhibition at 10 µM
[6] = target: T4, Cysteinyl leukotriene receptor 1 (Homo sapiens, UniProt Q9Y271); assay type: cell membranes, CHO-K1, Membrane; details: cho-k1; note: in other assays of this panel Not Active means under 50% inhibition at 10 µM
T4 sequence (Q9Y271 whole entry): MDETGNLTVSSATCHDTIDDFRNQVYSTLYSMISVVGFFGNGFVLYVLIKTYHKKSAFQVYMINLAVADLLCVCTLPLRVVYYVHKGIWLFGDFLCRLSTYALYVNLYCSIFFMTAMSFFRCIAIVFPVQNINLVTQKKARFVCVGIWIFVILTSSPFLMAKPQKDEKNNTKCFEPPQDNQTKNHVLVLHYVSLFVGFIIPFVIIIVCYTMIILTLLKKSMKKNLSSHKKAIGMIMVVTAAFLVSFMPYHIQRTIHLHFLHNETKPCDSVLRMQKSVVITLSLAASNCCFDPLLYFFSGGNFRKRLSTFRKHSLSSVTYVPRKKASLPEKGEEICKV

[7] = target: Insulin receptor (Rattus norvegicus, UniProt P15127); assay type: cell membranes, Wistar, Liver, Membrane; note: in other assays of this panel Not Active means under 50% inhibition at 10 µM
[8] = target: Cannabinoid receptor 1 (Homo sapiens, UniProt P21554); assay type: cell membranes, Membrane; details: chem-1; note: in other assays of this panel Not Active means under 50% inhibition at 10 µM
Sequence of Cannabinoid receptor 1 (P21554 whole entry): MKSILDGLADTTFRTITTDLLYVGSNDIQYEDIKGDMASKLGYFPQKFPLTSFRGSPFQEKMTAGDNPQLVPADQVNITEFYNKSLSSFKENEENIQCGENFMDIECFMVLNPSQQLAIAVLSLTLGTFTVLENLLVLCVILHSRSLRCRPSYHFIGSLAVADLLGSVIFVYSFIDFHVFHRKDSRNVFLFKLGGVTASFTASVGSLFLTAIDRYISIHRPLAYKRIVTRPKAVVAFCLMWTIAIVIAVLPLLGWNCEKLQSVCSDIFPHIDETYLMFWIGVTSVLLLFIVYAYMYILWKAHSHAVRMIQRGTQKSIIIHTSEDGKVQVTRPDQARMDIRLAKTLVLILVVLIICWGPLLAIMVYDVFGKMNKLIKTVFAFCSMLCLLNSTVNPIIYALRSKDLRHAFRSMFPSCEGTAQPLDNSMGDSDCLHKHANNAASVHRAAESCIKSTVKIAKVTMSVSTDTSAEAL

Sequence of Beta-1 adrenergic receptor (P08588 whole entry): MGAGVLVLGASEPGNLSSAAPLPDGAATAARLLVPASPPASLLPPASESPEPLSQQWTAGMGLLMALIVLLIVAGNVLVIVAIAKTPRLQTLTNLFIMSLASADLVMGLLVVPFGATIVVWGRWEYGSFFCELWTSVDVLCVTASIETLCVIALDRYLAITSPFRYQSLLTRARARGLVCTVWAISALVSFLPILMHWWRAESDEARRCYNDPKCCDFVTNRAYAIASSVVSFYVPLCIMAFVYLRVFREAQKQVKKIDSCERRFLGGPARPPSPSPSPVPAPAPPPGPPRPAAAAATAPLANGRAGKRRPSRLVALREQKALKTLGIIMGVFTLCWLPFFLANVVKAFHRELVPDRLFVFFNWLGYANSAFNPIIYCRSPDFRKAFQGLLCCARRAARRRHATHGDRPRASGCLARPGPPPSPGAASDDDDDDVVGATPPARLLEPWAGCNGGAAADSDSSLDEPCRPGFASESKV
Sequence of Insulin receptor (P15127 27-759 limits assumed): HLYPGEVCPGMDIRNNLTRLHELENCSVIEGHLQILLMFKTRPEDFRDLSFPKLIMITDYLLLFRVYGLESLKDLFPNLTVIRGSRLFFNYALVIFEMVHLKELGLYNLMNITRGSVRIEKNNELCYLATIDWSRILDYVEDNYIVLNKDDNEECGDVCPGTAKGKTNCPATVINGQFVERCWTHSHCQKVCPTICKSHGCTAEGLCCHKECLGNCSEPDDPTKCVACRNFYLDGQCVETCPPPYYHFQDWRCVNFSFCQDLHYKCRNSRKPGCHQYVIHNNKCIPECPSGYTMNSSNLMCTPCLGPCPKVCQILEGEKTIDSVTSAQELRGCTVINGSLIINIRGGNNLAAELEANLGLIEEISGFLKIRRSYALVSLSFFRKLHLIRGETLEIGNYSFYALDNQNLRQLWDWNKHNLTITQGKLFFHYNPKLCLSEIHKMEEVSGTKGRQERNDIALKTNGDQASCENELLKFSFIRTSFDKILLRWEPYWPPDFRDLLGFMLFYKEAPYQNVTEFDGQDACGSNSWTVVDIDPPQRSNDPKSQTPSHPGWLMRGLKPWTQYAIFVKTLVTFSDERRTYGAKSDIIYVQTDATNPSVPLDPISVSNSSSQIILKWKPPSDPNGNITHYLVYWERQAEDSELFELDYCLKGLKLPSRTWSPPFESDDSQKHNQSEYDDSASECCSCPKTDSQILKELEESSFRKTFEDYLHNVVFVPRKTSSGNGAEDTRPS
Sequence of Insulin receptor (P15127 764-1383 limits assumed): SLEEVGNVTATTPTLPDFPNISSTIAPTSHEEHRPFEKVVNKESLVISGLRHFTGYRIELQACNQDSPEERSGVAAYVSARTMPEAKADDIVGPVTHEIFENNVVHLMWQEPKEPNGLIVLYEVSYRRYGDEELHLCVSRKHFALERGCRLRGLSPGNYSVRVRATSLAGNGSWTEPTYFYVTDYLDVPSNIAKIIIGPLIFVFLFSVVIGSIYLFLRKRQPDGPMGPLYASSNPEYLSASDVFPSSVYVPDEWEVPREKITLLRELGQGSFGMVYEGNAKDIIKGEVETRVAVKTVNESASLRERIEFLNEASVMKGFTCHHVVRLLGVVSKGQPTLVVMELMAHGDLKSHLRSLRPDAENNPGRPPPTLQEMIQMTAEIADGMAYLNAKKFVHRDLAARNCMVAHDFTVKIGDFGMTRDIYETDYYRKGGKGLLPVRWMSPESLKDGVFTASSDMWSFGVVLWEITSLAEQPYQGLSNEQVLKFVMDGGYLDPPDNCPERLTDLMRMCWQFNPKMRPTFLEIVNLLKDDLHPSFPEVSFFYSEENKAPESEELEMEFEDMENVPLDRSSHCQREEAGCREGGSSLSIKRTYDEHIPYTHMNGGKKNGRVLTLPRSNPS

CC1(C)O[C@@H]2C[C@H]3[C@@H]4CCC5=CC(=O)CC[C@]5(C)[C@@]4(F)[C@@H](O)C[C@]3(C)[C@]2(C(=O)CCl)O1 [HALCINONIDE]
Not Active: IC50 [1] | IC50 [2] | IC50 [3] | IC50 [4] | IC50 [5] | Ki [5] | IC50 [6] | IC50 [7] | IC50 [8]

O=c1[nH]c(=O)n([C@H]2C[C@H](O)[C@@H](CO)O2)cc1I [IDOXURIDINE]
Not Active: IC50 [1] | IC50 [2] | IC50 [3] | IC50 [4] | IC50 [5] | Ki [5] | IC50 [6] | IC50 [7] | IC50 [8]

CC1Cc2ccccc2N1NC(=O)c1ccc(Cl)c(S(N)(=O)=O)c1 (stereo not given) [INDAPAMIDE]
Not Active: IC50 [1] | IC50 [2] | IC50 [3] | IC50 [4] | IC50 [5] | Ki [5] | IC50 [6] | IC50 [7] | IC50 [8]

CCC(C)n1ncn(-c2ccc(N3CCN(c4ccc(OCC5COC(Cn6cncn6)(c6ccc(Cl)cc6Cl)O5)cc4)CC3)cc2)c1=O (stereo not given) [ITRACONAZOLE]
Not Active: IC50 [1] | IC50 [2] | IC50 [3] | IC50 [4] | IC50 [5] | Ki [5] | IC50 [6] | IC50 [7] | IC50 [8]

CCCCN1CCCC[C@H]1C(=O)Nc1c(C)cccc1C [LEVOBUPIVACAINE]
Not Active: IC50 [1] | IC50 [2] | IC50 [3] | IC50 [4] | IC50 [5] | Ki [5] | IC50 [6] | IC50 [7] | IC50 [8]

CCCCc1nc(Cl)c(CO)n1Cc1ccc(-c2ccccc2-c2nnn[nH]2)cc1 [LOSARTAN]
Not Active: IC50 [1] | IC50 [2] | IC50 [3] | IC50 [4] | IC50 [5] | Ki [5] | IC50 [6] | IC50 [7] | IC50 [8]

Sc1ncnc2nc[nH]c12 [MERCAPTOPURINE ANHYDROUS]
Not Active: IC50 [1] | IC50 [2] | IC50 [3] | IC50 [4] | IC50 [5] | Ki [5] | IC50 [6] | IC50 [7] | IC50 [8]

C[C@](N)(Cc1ccc(O)c(O)c1)C(=O)O [METHYLDOPA]
Not Active: IC50 [1] | IC50 [2] | IC50 [3] | IC50 [4] | IC50 [5] | Ki [5] | IC50 [6] | IC50 [7] | IC50 [8]

C[C@]12CCC(=O)C=C1CC[C@@H]1[C@@H]2CC[C@@]2(C)[C@H]1CC[C@]2(C)O [METHYLTESTOSTERONE]
Not Active: IC50 [1] | IC50 [2] | IC50 [3] | IC50 [4] | IC50 [5] | Ki [5] | IC50 [6] | IC50 [7] | IC50 [8]

Cc1ccccc1N1C(=O)c2cc(S(N)(=O)=O)c(Cl)cc2NC1C (stereo not given) [METOLAZONE]
Not Active: IC50 [1] | IC50 [2] | IC50 [3] | IC50 [4] | IC50 [5] | Ki [5] | IC50 [6] | IC50 [7] | IC50 [8]

CCn1cc(C(=O)O)c(=O)c2cc(F)c(N3CCNCC3)cc21 [NORFLOXACIN]
Not Active: IC50 [1] | IC50 [2] | IC50 [3] | IC50 [4] | IC50 [5] | Ki [5] | IC50 [6] | IC50 [7] | IC50 [8]

NC1=NC(=O)C(c2ccccc2)O1 (stereo not given) [PEMOLINE]
Not Active: IC50 [1] | IC50 [2] | IC50 [3] | IC50 [4] | IC50 [5] | Ki [5] | IC50 [6] | IC50 [7] | IC50 [8]

Nc1nc2c(ncn2CCC(CO)CO)c(=O)[nH]1 [PENCICLOVIR]
Not Active: IC50 [1] | IC50 [2] | IC50 [3] | IC50 [4] | IC50 [5] | Ki [5] | IC50 [6] | IC50 [7] | IC50 [8]

C=C(C)C1(O)OC(=O)C=C1OC (stereo not given) [PENICILLIC ACID]
Not Active: IC50 [1] | IC50 [2] | IC50 [3] | IC50 [4] | IC50 [5] | Ki [5] | IC50 [6] | IC50 [7] | IC50 [8]

CC1(C)S[C@@H]2[C@H](NC(=O)Cc3ccccc3)C(=O)N2[C@H]1C(=O)O [PENICILLIN G]
Not Active: IC50 [1] | IC50 [2] | IC50 [3] | IC50 [4] | IC50 [5] | Ki [5] | IC50 [6] | IC50 [7] | IC50 [8]

CCCN1C[C@H](CSC)C[C@@H]2c3cccc4[nH]cc(c34)C[C@H]21 [PERGOLIDE]
Not Active: IC50 [1] | IC50 [2] | IC50 [3] | IC50 [4] | IC50 [5] | Ki [5] | IC50 [6] | IC50 [7] | IC50 [8]

C1CCC(C(CC2CCCCN2)C2CCCCC2)CC1 (stereo not given) [PERHEXILINE]
Not Active: IC50 [1] | IC50 [2] | IC50 [3] | IC50 [4] | IC50 [5] | Ki [5] | IC50 [6] | IC50 [7] | IC50 [8]

CCOc1ccc(NC(C)=O)cc1 [PHENACETIN]
Not Active: IC50 [1] | IC50 [2] | IC50 [3] | IC50 [4] | IC50 [5] | Ki [5] | IC50 [6] | IC50 [7] | IC50 [8]

Cc1ccc(N(CC2=NCCN2)c2cccc(O)c2)cc1 [PHENTOLAMINE]
Not Active: IC50 [1] | IC50 [2] | IC50 [3] | IC50 [4] | IC50 [5] | Ki [5] | IC50 [6] | IC50 [7] | IC50 [8]

CNNCc1ccc(C(=O)NC(C)C)cc1 [PROCARBAZINE]
Not Active: IC50 [1] | IC50 [2] | IC50 [3] | IC50 [4] | IC50 [5] | Ki [5] | IC50 [6] | IC50 [7] | IC50 [8]

From ChEMBL document CHEMBL1909046, “DrugMatrix in vitro pharmacology data”
